Patent publication US12673954B2 (BRISTOL-MYERS SQUIBB COMPANY, priority 2021, dated 2026)
Where two headings read alike, the source gives them in different places.

Tests used:
[1] = tested on: NF-κB pathway, THP1-Dual™ cells; test: STING reporter assay in THP1-Dual cells, NF-κB pathway (SEAP, QUANTI-Blue); type: cell-based, human; conditions: read-out: NFkB (EC50 μM)
Description: (§1) THP1-Dual™ cells were derived from the human THP-1 monocyte cell line by stable integration of two inducible reporter constructs. To this end, THP1-Dual™ cells allow the simultaneous study of the NF-κB pathway, by monitoring the activity of SEAP, and the IRF pathway by assessing the activity of a secreted luciferase (Lucia). Both reporter proteins are readily measurable in the cell culture supernatant when using QUANTI-Blue™, a SEAP detection reagent, and QUANTI-Luc™, a luciferase detection reagent.
(§2) THP1-Dual™ cells induce the activation of NF-κB in response to STING agonists. They also trigger the IRF pathway upon stimulation with STING agonists, such as cGAMP. Here, the THP-1-Dual cells were used to assess STING specific binders for function on the cellular level.
(§3) Serial dilutions of compounds in DMSO were added to low volume 384 well plates at 100 nl/well using an ECHO acoustic dispenser (Labcyte, model 550) to achieve final starting concentration of 100 μM in cell suspension. […] One column of the plate was reserved for treatment with cGAMP at 100 μM for 100% activation calculation and one column for no treatment (DMSO only) for baseline activation. Plates were then incubated in 37° C. incubator at 5% CO2 for 20 hours.
(§4) Plates were read on the Envision (Perkin Elmer) at 620 nm wavelength (OD620). In the luciferase assay, 5 μl of Quantiluc (Invivogen, Rep-qlc2) is added to white 384 well plates seeded with THP1 cells and read at 5 minutes on the Envision (Perkin Elmer) using a luminescence protocol (RLU). 100% activation was determined by value (RLU) of THP-1 Dual STING cells stimulated with 100 μM cGAMP (Invivogen, cat #TLRL-NACGA23-5).

[2] = tested on: IRF pathway, THP1-Dual™ cells; test: STING reporter assay in THP1-Dual cells, IRF pathway (Lucia luciferase, QUANTI-Luc); type: cell-based, human; conditions: read-out: IRF (EC50 μM)
Description: as §1, §2, §3, §4

[3] = Homo sapiens, THP1-Dual, 20 h, THP1-Dual cells, 10% human plasma, 20 hours, SEAP, 100% activation = 100 μM cGAMP
[4] = Homo sapiens, THP1-Dual, 20 h, THP1-Dual cells, 10% human plasma, 20 hours, Lucia luciferase, 100% activation = 100 μM cGAMP
[5] = THP1-Dual cells, 10% human plasma, 20 hours, SEAP, 100% activation = 100 μM cGAMP
[6] = THP1-Dual cells, 10% human plasma, 20 hours, Lucia luciferase, 100% activation = 100 μM cGAMP

EC50 [1, 3] [µM] | EC50 [2, 4] [µM] | SMILES | further results
93 | 71 | COC(=O)c1cc(Cl)cc2cc(CNC(=O)c3[nH]nc4cccnc34)oc12 [Example 49, Methyl 2-((2H-pyrazolo[4,3-b]pyridine-3-carboxamido)methyl)-5-chlorobenzofuran-7-carboxylate] | –
1.2 | 0.91 | CONC(=O)c1cc(C)cc2c(Cl)c(CNC(=O)c3cnn4cccnc34)oc12 [EXAMPLE 408, N-((3-chloro-7-(methoxycarbamoyl)-5-methylbenzofuran-2-yl)methyl)pyrazolo[1,5-a]pyrimidine-3-carboxamide] | –
2.1 | 1.7 | COC(=O)c1cc(Cl)cc2cc(CNC(=O)c3cncc4[nH]cnc34)oc12 [Example 68, Methyl 2-((3H-imidazo[4,5-c]pyridine-7-carboxamido)methyl)-5-chlorobenzofuran-7-carboxylate] | –
16 | 13 | O=C(OCC(F)(F)F)c1cc(Cl)cc2cc(CN3CCc4ccncc4C3=O)oc12 [EXAMPLE 370, 2,2,2-Trifluoroethyl 5-chloro-2-((1-oxo-3,4-dihydro-2,7-naphthyridin-2(1H)-yl)methyl)benzofuran-7-carboxylate] | –
0.61 | 0.75 | CSC(=O)c1cc(C)cc2cc(CNC(=O)c3cnn4cccnc34)oc12 [EXAMPLE 391, S-Methyl 5-methyl-2-((pyrazolo[1,5-a]pyrimidine-3-carboxamido)methyl)benzofuran-7-carbothioate] | –

Second part, the compound before the results:

SMILES | EC50 [1, 3] [µM] | EC50 [2, 4] [µM] | further results
C=Cc1c(CNC(=O)c2cnn3cccnc23)oc2c(C(=O)OC)cc(C)cc12 [EXAMPLE 124, Methyl 5-methyl-2-((pyrazolo[1,5-a]pyrimidine-3-carboxamido)methyl)-3-vinylbenzofuran-7-carboxylate] | 6.7 | 5.7 | –
C[C@H](NC(=O)c1cnn2cccnc12)c1cc2cc(Cl)cc(C(=O)SCC[Si](C)(C)C)c2o1 [EXAMPLE 400, S-(2-(Trimethylsilyl)ethyl) (S)-5-chloro-2-(1-(pyrazolo[1,5-a]pyrimidine-3-carboxamido)ethyl)benzofuran-7-carbothioate] | – | – | EC50 ([1]; Homo sapiens, THP1-Dual, 20 h): 22 µM; EC50 ([2]; Homo sapiens, THP1-Dual, 20 h): 25 µM
Cc1ccn2ncc(C(=O)NCc3cc4cccc(C(=O)OCC(F)(F)F)c4o3)c2n1 [EXAMPLE 219, 2,2,2-Trifluoroethyl 2-((5-methylpyrazolo[1,5-a]pyrimidine-3-carboxamido)methyl)benzofuran-7-carboxylate] | 10 | 7.7 | –
CC(OC(=O)c1cc(C(F)(F)F)cc2cc(CNC(=O)c3cnn4cccnc34)oc12)C(F)(F)F (single isomer, unassigned) [EXAMPLE 349, 1,1,1-Trifluoropropan-2-yl 2-((pyrazolo[1,5-a]pyrimidine-3-carboxamido)methyl)-5-(trifluoromethyl)benzofuran-7-carboxylate] | – | – | EC50 [1, 5]: 3.5 µM; EC50 [2, 6]: 3.8 µM
CC(OC(=O)c1cc(Br)cc2cc(CNC(=O)c3cnn4cccnc34)oc12)C(F)(F)F (single isomer, unassigned) [EXAMPLE 341, 1,1,1-Trifluoropropan-2-yl 5-bromo-2-((pyrazolo[1,5-a]pyrimidine-3-carboxamido)methyl)benzofuran-7-carboxylate] | – | – | EC50 [1, 5]: 2.5 µM; EC50 [2, 6]: 1.6 µM
O=C(OCC(F)(F)F)c1cc(C(F)(F)F)cc2cc(CNC(=O)c3cnn4cccnc34)oc12 [EXAMPLE 283, 2,2,2-Trifluoroethyl 2-((pyrazolo[1,5-a]pyrimidine-3-carboxamido)methyl)-5-(trifluoromethyl)benzofuran-7-carboxylate] | 0.52 | 0.4 | –
O=C(OCC(F)F)c1cc(F)cc2cc(CNC(=O)c3cnn4cccnc34)oc12 [EXAMPLE 235, 2,2-Difluoroethyl 5-fluoro-2-((pyrazolo[1,5-a]pyrimidine-3-carboxamido)methyl)benzofuran-7-carboxylate] | 0.68 | 0.69 | –
